Test results published in US20060069132A1, “Azolecarboxamide herbicides” (priority 2004, published 2006).

Experiments:
velvetleaf = assay: Test C pre-/postemergence herbicide test; assay type: in vivo, Abutilon theophrasti; settings: preemergence
In short: (§1)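 Greenhouse-grown plants were evaluated visually 12 to 14 days after treatment, with 100 meaning complete control and 0 no effect. Application was preemergence, or postemergence at 2 to 18 cm.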

yellow nutsedge = assay: Test C pre-/postemergence herbicide test; assay type: in vivo, Cyperus esculentus; settings: preemergence
In short: as §1

barnyardgrass = assay: Test C flooded paddy test; assay type: in vivo, Echinochloa crus-galli; settings: for Plant response rating, Barnyardgrass: 500 g ai/ha, visual rating after 12 to 14 days
In short: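 After a postemergence application at 1 to 4 leaves (plants 2–18 cm high), or at 2 leaves for barnyardgrass in flooded paddy, plants stayed in the greenhouse for 12 to 14 days. Damage was then judged visually relative to control plants, with 100 indicating complete control.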

[1] = tested on: common (oilseed) sunflower; assay: Test C pre-/postemergence herbicide test; assay type: in vivo, Helianthus annuus; settings: preemergence
In short: as §1

bermudagrass = assay: Test C pre-/postemergence herbicide test; assay type: in vivo, Cynodon dactylon; settings: for Bermudagrass plant response rating: Preemergence
In short: as §1

woolly cupgrass = assay: Test C pre-/postemergence herbicide test; assay type: in vivo, Eriochloa villosa; settings: preemergence
In short: as §1

giant foxtail = assay: Test C pre-/postemergence herbicide test; assay type: in vivo, Setaria faberi; settings: preemergence
In short: as §1

[2] = 500 g ai/ha, scale 0 to 100 (0 no effect, 100 complete control), visual, 12 to 14 days
[3] = 125 g ai/ha, scale 0 (no effect) to 100 (complete control), visual, 12 to 14 days
[4] = 62 g ai/ha, scale 0 to 100 (0 no effect, 100 complete control)
[5] = 125 g ai/ha, scale 0 to 100 (0 no effect, 100 complete control)
[6] = 250 g ai/ha, scale of 0 to 100, 0 is no effect, 100 is complete control
[7] = scale 0 to 100 (0 no effect, 100 complete control)
[8] = 62 g ai/ha, preemergence, scale 0 to 100, 0 no effect, 100 complete control
[9] = 125 g ai/ha, scale 0 (no effect) to 100 (complete control), visual, 12 to 14 days, preemergence
[10] = 250 g ai/ha, scale 0-100, preemergence
[11] = 500 g ai/ha, scale 0 to 100, 0 no effect, 100 complete control

| SMILES | Plant response rating, Velvetleaf (velvetleaf; 62 g ai/ha, scale 0 to 100) | Plant response rating, Velvetleaf (velvetleaf; 250 g ai/ha, scale 0-100) | Plant response rating, Velvetleaf (velvetleaf; [2]) | Plant response rating, Nutsedge, Yellow (yellow nutsedge; 62 g ai/ha, scale 0 to 100) | Plant response rating, Nutsedge, Yellow (yellow nutsedge; 250 g ai/ha, scale 0-100) | Plant response rating, Nutsedge, Yellow (yellow nutsedge; [2]) | Barnyardgrass plant response rating (barnyardgrass; [4]) | Barnyardgrass plant response rating (barnyardgrass; [5]) | Barnyardgrass plant response rating (barnyardgrass; [6]) | Plant response rating, Barnyardgrass (barnyardgrass; [7]) | Plant response rating, Sunflower ([1]; 62 g ai/ha, scale 0 to 100) | Plant response rating, Sunflower ([1]; 250 g ai/ha, scale 0-100) | Plant response rating, Sunflower [1, 2] | Plant response rating, Bermudagrass (bermudagrass; [8]) | Plant response rating, Bermudagrass (bermudagrass; [10]) | Plant response rating, Cupgrass, Woolly (woolly cupgrass; 62 g ai/ha, scale 0 to 100) | Plant response rating, Cupgrass, Woolly (woolly cupgrass; 250 g ai/ha, scale 0-100) | Plant response rating, Cupgrass, Woolly (woolly cupgrass; [2]) | Plant response rating, Foxtail, Giant (giant foxtail; 62 g ai/ha, scale 0 to 100) | Plant response rating, Foxtail, Giant (giant foxtail; 250 g ai/ha, scale 0-100) | other results |
| --- | --- | --- | --- | --- | --- | --- | --- | --- | --- | --- | --- | --- | --- | --- | --- | --- | --- | --- | --- | --- | --- |
| CCn1nc(C(C)(C)C)cc1C(=O)Nc1ccc(OC)c(OC)c1 [Compound 298] | 60 | 100 | 100 | 0 | 20 | 30 | 15 | 50 | 65 | 90 | 0 | 0 | 0 | 50 | 80 | 5 | 30 | 60 | 20 | 70 | Plant response rating, Nutsedge, Yellow (yellow nutsedge; [3]): 0; Plant response rating, Bermudagrass (bermudagrass; [9]): 55; Bermudagrass plant response rating (bermudagrass; [11]): 95; Plant response rating, Cupgrass, Woolly (woolly cupgrass; [3]): 10; Plant response rating, Foxtail, Giant (giant foxtail; [3]): 70; Plant response rating, Foxtail, Giant (giant foxtail; [2]): 100 |
| C=CCNC(=O)c1cccc(NC(=O)c2nn(C(C)C)nc2CC)c1 [Compound 382] | 100 | 100 | 100 | 0 | 25 | 60 | 10 | 25 | 65 | 75 | 0 | 0 | 20 | 60 | 85 | 0 | 20 | 40 | 60 | 100 | Plant response rating (0 = no effect, 100 = complete control), Velvetleaf (velvetleaf; 125 g ai/ha): 100; Plant response rating (0 = no effect, 100 = complete control), Nutsedge, Yellow (yellow nutsedge; 125 g ai/ha): 0; Plant response rating (0 = no effect, 100 = complete control), Bermudagrass (bermudagrass; 125 g ai/ha, preemergence): 80; Plant response rating, Bermudagrass (bermudagrass; 500 g ai/ha, scale 0 to 100 (0 no effect, 100 complete control), visual, 12 to 14 days, preemergence): 90; Plant response rating (0 = no effect, 100 = complete control), Cupgrass, Woolly (woolly cupgrass; 125 g ai/ha): 0; Plant response rating (0 = no effect, 100 = complete control), Foxtail, Giant (giant foxtail; 125 g ai/ha): 90; Plant response rating, Foxtail, Giant (giant foxtail; [2]): 100 |
| CCn1nc(C(C)(C)C)cc1C(=O)Nc1cc(C(=O)N(C)OC)ccc1F [Compound 244] | 15 | 100 | 100 | 0 | 0 | 0 | 0 | 70 | 75 | 80 | 0 | 15 | 20 | 95 | 100 | 65 | 85 | 95 | 80 | 95 | Plant response rating, Nutsedge, Yellow (yellow nutsedge; [3]): 0; Plant response rating, Bermudagrass (bermudagrass; [9]): 100; Bermudagrass plant response rating (bermudagrass; [11]): 100; Plant response rating, Cupgrass, Woolly (woolly cupgrass; [3]): 65; Plant response rating, Foxtail, Giant (giant foxtail; [3]): 95; Plant response rating, Foxtail, Giant (giant foxtail; [2]): 100 |
